Here are results for 87 molecules from a melting point compilation (Tetko et al.; mined from patent text by program, amines drawn as free bases though some values may be those of a salt).

Some results are limits rather than exact numbers.

In turn, `O=C(O)C/C(C(=O)O)=C(\CCCCCCCCCCCCCCCCOS(=O)(=O)O)C(=O)O` came in with a melting point of 63 to 65 °C.
The value for `O=C(CCCCCCNC(=O)c1ccc(C(F)(C(=O)Nc2cccc3cccnc23)C(=O)Nc2cccc3cccnc23)cc1)NO` was 120 to 122 °C.
Consider `CCOC(=O)c1nc(-c2ccc(Cl)cc2Cl)c(-c2ccc(Cl)cc2)s1`, for which the melting point was in the range of 117 to 118 °C.
On to `Cc1cccc2c(N3CCS(=O)CC3)nc(N3CCNCC3)cc12`, for which the melting point lay in the range of 201 to 203 °C.
The value for `C=CC[C@@]1(NC(=O)OC(C)(C)C)C(=O)[C@@H](C(C)C)N(C(=O)OC(C)(C)C)C1=O` was 83 °C; that for `Clc1ccc2[nH]c3c4c(Cl)cccc4nc-3cc2c1` was 221 to 222 °C.
The value for `CCOC(=O)Cc1ccccc1N[C@@H](CCC(N)=O)C(=O)O` was 171 to 172 °C; that for `CCOc1ccccc1N(C(=O)C(N)=O)c1nc(N(CC)CC)nc(N(CC)CC)n1` was 97 to 100 °C.
The same measure for `COc1cc(-n2cccn2)ccc1-n1cc(OC)c(=O)c(-c2ccnn2-c2ccccc2)n1`: 133 to 135 °C.
Turning to `O=C(O)c1cc(Cl)cc(I)c1O`, the melting point fell in the range of 160 to 163 °C.
With `CCOC(=O)COc1cccc(NC(=O)NC2N=C(c3ccccc3F)c3ccccc3N(CC(=O)N3CC4CCC(CC4)C3)C2=O)c1` (racemic), the melting point was in the range of 156 to 158 °C.
The value for `COCCOCCN1C(=O)C2(COc3cc4c(cc32)OCCO4)c2c1ccc1ncsc21` (configuration not stated) was 156 to 158 °C; that for `Cc1cc(-c2cc(C(F)(F)F)n3ncc(C(=O)Nc4cc(S(=O)(=O)NC(C)(C)CO)sc4Cl)c3n2)ccc1C(F)(F)F` was 207 °C; that for `COc1ccc(/C=C/C(=O)N2CC(CCl)c3c2cc([N+](=O)[O-])c2cc(S(=O)(=O)NCCO)ccc32)cc1` (configuration not stated) was 250 to 251 °C.
The same measure for `CCc1cc(CCN2C(=O)c3ccccc3C2=O)c(OC)nc1C`: 77 to 79 °C.
The value for `Cc1oc(C(C)(C)C)nc1CCl` was 41 to 44 °C; that for `CCOC(=O)COc1ccc(SCc2ccc3sc(-c4ccc(C(F)(F)F)cc4)nc3c2)cc1C` was 138 to 140 °C; that for `COc1cc2c(cc1Nc1ncc(Cl)c(N[C@@H]3CCCC[C@H]3NS(C)(=O)=O)n1)CCN(CCS(C)(=O)=O)CC2` was 216 to 235 °C.
With `O=C(Nc1ccccc1)N(Cc1ccc(F)cc1)C1CCCC1`, the melting point lay within 120 to 121 °C.
The value for `COc1nc(SC)nc(Cl)c1C(=O)NCc1ncccn1` was 176 to 177 °C.
The value for `Fc1ccc2c(c1)Oc1ccccc1S2` was 77.5 to 79 °C; that for `O=C1CC(c2cccc3oc4c(c23)CCCC4)CC(=O)O1` was 139 to 140 °C.
The same measure for `OC1CCC(n2cnc3cc(Cl)c(Cl)cc32)C1O` (configuration not stated): 180 to 182 °C; for `CCN1CCc2ccc(Nc3ncc(Cl)c(N[C@H]4CCC[C@H]4C(N)=O)n3)cc2CC1` (relative stereo): 237 to 242 °C; for `COc1ccccc1Oc1c(N=[N+]=[N-])nc(N2CCOCC2)nc1OCCOCc1ccccc1`: 146 to 148 °C.
In the case of `Nc1ncnc2c1nc(OC(=O)c1ccccc1)n2Cc1ccccc1`, the melting point was in the range of 227 to 229 °C.
As for `COc1ccc2c(c1)S(=O)(=O)N=CN2CCO`, the melting point was in the range of 160 to 162 °C.
The value for `O=COCCCN1C(=O)c2ccccc2C1=O` was 68 to 70 °C; that for `CC(CC#N)N1C(=O)C2(OCCCO2)c2cc(Br)ccc21` (configuration not stated) was 112 to 113 °C; that for `CCN(CC)c1cccc(-c2ccc(C(=O)O)c(=O)[nH]2)c1` was 256 to 258 °C.
`CCOC(=O)N(CC(=O)O)C(=O)c1c(Cl)ccc2c(C(F)(F)F)c(OC)ccc12`: the melting point is 144 to 146 °C.
The molecule `CCNc1c(C(=O)OCC)c(C)nc2scnc12` had a melting point of 53 to 54 °C.
With `CCN1C(=O)c2cccnc2N(C)c2nc(-c3ccc[nH]3)ccc21`, the melting point is 161 to 162 °C.
The same measure for `CN(C)CCCOc1cc2oc3cc(-c4ccccc4Cl)c4c(c3c2cc1O)C(=O)NC4=O`: 255 to 258 °C; for `CC(=O)Oc1ccc(C=O)cc1Cl`: 33 to 35 °C.
The value for `C(=C\c1nc(COc2ccc(CCCCn3ccnn3)cc2)co1)/c1ccccc1` was 125 to 126 °C; that for `Cc1ccc(Cl)c(C2CCc3c(C)cnnc3C2)c1` (configuration not stated) was 65 to 70 °C; that for `O=C1C=C(c2c[nH]c3ccc(F)cc23)C(=O)N1` was 255 to 265 °C.
The molecule `CC1(C)C(=O)Nc2cc(C(=O)Nc3ccc(N)cc3)ccc21` showed a melting point of 216 to 218 °C.
The same measure for `Fc1ccc(C(Cl)(Cn2cncn2)C(F)(F)F)c(F)c1` (configuration not stated): 87 to 88 °C; for `CCCc1c(OCCCCCc2c(Cl)c(Cl)c(Cl)c(OC)c2OC)ccc(C(=O)O)c1O`: 148 to 150 °C; for `O=[N+]([O-])c1ccc(Oc2ccccc2)cc1OCc1ccccc1`: 96 to 98 °C.
The same measure for `O=[N+]([O-])c1cc2nc(O)c(O)nc2c2nccnc12`: above 300 °C.
On to `CC(C)(C)N(NC(=O)c1ccccc1)C(=O)Cc1ccccc1`, for which the melting point is 167 to 169 °C.
Turning to `CCOC(=O)Cc1ccc(C(=O)c2ccc(C)cc2)n1C`, the melting point lay in the range of 70 to 71 °C.
Consider `O=C1CC(NCCCOc2cccc(CN3CCCCC3)c2)=Nc2ccccc21`, for which the melting point was 171 to 172 °C.
The same measure for `N#Cc1cnc2c(cc([N+](=O)[O-])c3nncc32)c(-c2ccccc2Cl)n1`: 193 to 196 °C; for `CCOC(=O)c1sc(Oc2ccc3c(c2)OCC3)c2c1CCc1cnn(C)c1-2`: 137 to 138 °C.
The value for `CCOC(=O)c1ccc(I)cc1N` was 51 to 53 °C.
The value for `O=C(O)c1c(Br)c(Br)c([N+](=O)[O-])c2c1OCCO2` was 238 °C.
Take `CCOC(=O)C(OC)C(=O)Nc1ccc(Br)cc1C` (configuration not stated): the melting point lay within 93 to 95 °C.
The same measure for `CCc1ccc(N2CCN(c3c(C)c(C)c4c(c3C)CC(C)(C)O4)CC2)cc1`: 152 to 155 °C.
The value for `COc1ccc(C(C)(O)c2ocnc2C)cc1` (configuration not stated) was 115 to 116 °C; that for `NS(=O)(=O)c1ccc(-c2noc(-c3cnn4c(C5CC5)cc(-c5ccc(Cl)cc5)nc34)n2)s1` was 294 °C.
The same measure for `O=C1Nc2ccc(Cl)cc2C(OCc2ccccn2)(C(F)(F)F)CN1C1CC1` (configuration not stated): 170 to 172 °C; for `COc1ccc2nc(-c3cc(C)c(OCCO)c(C)c3)n(-c3ccc(Br)cc3)c(=O)c2c1`: 160 to 162 °C.
Take `O=[N+]([O-])c1ccc(CO)c(Sc2ccccc2O)c1`: the melting point lay within 131 to 133 °C.
The molecule `CCCn1c(=O)c2[nH]c(/C=C/c3ccc(OC)cc3)nc2n(CCC)c1=O` had a melting point of 281 to 284 °C.
In turn, `CN1CCN(C(=O)/C=C/c2occc(=O)c2OCC(=O)OC(C)(C)C)CC1` yielded a melting point of 124 to 125 °C.
The same measure for `O=[N+]([O-])c1ccc(-c2oncc2CCCO)cc1`: 132 to 133 °C; for `N#Cc1c(N)[nH]c2ccc(Sc3ccc(O)cc3)cc12`: 241 to 242 °C; for `CCOC(=O)c1c(N2CCN(C(=O)c3cccs3)CC2)c2cccnc2n(Cc2ccc(OC(C)=O)cc2)c1=O`: 123 °C.
The same measure for `CS(=O)(=O)C(S(C)(=O)=O)S(=O)(=O)Oc1ccccc1`: 159 to 160 °C.
The value for `OCC1OC(n2cnc3c(NCC(c4ccccc4)c4ccc(Cl)cc4)ncnc32)C(O)C1O` (configuration not stated) was 89 to 95 °C; that for `CN1Cc2c(C#N)ncn2-c2cccc(Br)c2C1=O` was 226 to 228 °C; that for `C[C@@H]1N=C(c2ccccc2F)c2cc([N+](=O)[O-])ccc2N(C)C1=O` was 95 to 110 °C.
Turning to `CCCCCCCCN1C(=O)c2c(Br)sc(Br)c2C1=O`, the melting point was determined as 104 °C.
Take `CC(CN(C)C)OC(=O)c1ccc(NC(=O)CCn2cnc3c(=O)[nH]cnc32)cc1` (configuration not stated): the melting point was 270 to 275 °C.
The value for `N=C(NCc1ccccn1)NN=Cc1c(Cl)cccc1Cl` was 125 to 140 °C; that for `CCCC(=O)c1cnc2c(OC)csc2c1Cl` was 76 to 78 °C.
The value for `O=c1ccoc2cc(OCCCNCC3COc4ccc(O)cc4O3)ccc12` (configuration not stated) was 186 to 189 °C.
The value for `O=[N+]([O-])C(=Cc1ccco1)C1=NCCN1Cc1ccc(Cl)nc1` was 157 to 162 °C.
`C=CCON=C(CC)C1=C(O)CC(c2ccc(NS(C)(=O)=O)cc2)CC1=O` (configuration not stated) registered a melting point of 134 to 135 °C.
The same measure for `Cn1cc(-c2cccc(N3Cc4cc(C(C)(C)C)ccc4C3=O)c2CO)cc(Nc2ccccn2)c1=O`: 138 to 139 °C; for `Cc1ncc(C(=O)O)cn1`: 166 to 170 °C; for `Brc1ccc(SCc2ncon2)cc1`: 56 °C.
The value for `O=C1C(=O)c2ccccc2C2=C1SCC1(CCCN(C(=O)c3cccc(Cl)c3)CC1)O2` (configuration not stated) was 98 to 100 °C.
The value for `CC=CN(C=CC)c1ccc2[nH]c3cnc(-c4nc(CC)no4)cc3c2c1` was 151 to 156 °C; that for `COc1ccc(NC(=O)c2ccc(Br)s2)cc1N1CCN(C)CC1` was 114 to 115 °C; that for `COC(=O)c1ccc(COC(C)=O)nc1C1=NC(C)(C(C)C)C(=O)N1C(C)=O` (configuration not stated) was 111 to 112 °C.
Molecule `O=C(Cn1c(=O)oc2ccc(Cl)cc21)c1ccc(C(F)(F)F)cc1` displayed a melting point of 188 to 189 °C.
The same measure for `COC(=O)C[C@H]1C[C@H](C=Cc2c(-c3ccc(F)cc3)c(-c3ccc(F)cc3)c(C(=O)OCc3ccccc3)n2C(C)C)OC(C)(C)O1`: 125 to 127 °C; for `CCOC(=O)c1cnc(Cl)c2c(C)n[nH]c12`: 180 °C.
For the molecule `COc1ccc(C(C(c2ccccc2)c2ccc(F)cc2)C(F)(F)F)cc1` (configuration not stated), the melting point was 113 to 120 °C.
The value for `CCOCc1nc2c(N)nc3cc(-c4cccnc4)ccc3c2n1CCN1CCNCC1` was 208 to 211 °C; that for `CC1(C)CCC(C)(C)c2c(CC#Cc3ccc(C(=O)O)cc3)cc(-c3ccccc3)cc21` was 228 °C.
The same measure for `CC(=O)N(C)c1cc(Cl)ccc1C(=O)c1cnoc1C1CC1`: 106 to 108 °C.
